# Assay results published in the supplement of paper PMC10307832.
# Tests used:
# Experiment in all cases: relative viability (nuclei count vs DMSO), 5 days (fraction); higher = more cells survive
# [1] = compound: C1/C(=C\C2=CC=CS2)/C(=O)/C(=C/C3=CC=CS3)/C1 + CC(=O)Nc1cccc(-n2c(=O)n(C3CC3)c(=O)c3c(Nc4ccc(I)cc4F)n(C)c(=O)c(C)c32)c1 [Trametinib] (partner 0.02 µM)
# In short: (§1)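 For relative viability, nuclei counts in treated wells were divided by those in vehicle wells. Lung cancer cell lines had been pin-tool dosed in 1536-well plates the day after seeding and cultured for 5 days, then fixed and stained in one step (final 0.05% Triton X-100, 1% formaldehyde, 1 ug/ml Hoechst) and imaged at 4×. Doses were one drug alone or a fixed anchor-drug dose plus five library-drug doses (not always all listed) in √10 steps, and values are duplicate-plate medians.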
# [2] = compound: C1/C(=C\C2=CC=CS2)/C(=O)/C(=C/C3=CC=CS3)/C1 + COc1cccc2cc(-c3nc([C@H]4CC[C@H](C(=O)O)CC4)n4ncnc(N)c34)[nH]c12 [OSI-027] (partner 0.5 µM)
# In short: as §1
# [3] = compound: C[C@]12O[C@H](C[C@]1(O)CO)n1c3ccccc3c3c4c(c5c6ccccc6n2c5c31)CNC4=O [Lestaurtinib] + C[C@]1(O)C[C@@H](c2nc(-c3ccc4ccc(-c5ccccc5)nc4c3)c3c(N)nccn32)C1 [Linsitinib] (partner 1 µM)
# In short: as §1
# [4] = compound: C[C@]12O[C@H](C[C@]1(O)CO)n1c3ccccc3c3c4c(c5c6ccccc6n2c5c31)CNC4=O [Lestaurtinib] + Cc1cc(Nc2cc(N3CCN(C)CC3)nc(Sc3ccc(NC(=O)C4CC4)cc3)n2)n[nH]1 [Tozasertib] (partner 0.1 µM)
# In short: as §1
Cell Line,relative viability ([1]; first compound 0.2 µM),relative viability ([1]; first compound 0.6325 µM),relative viability ([1]; first compound 2 µM),relative viability ([1]; first compound 6.325 µM),relative viability ([1]; first compound 20 µM),relative viability ([2]; first compound 0.2 µM),relative viability ([2]; first compound 0.6325 µM),relative viability ([2]; first compound 2 µM),relative viability ([2]; first compound 6.325 µM),relative viability ([2]; first compound 20 µM),relative viability ([3]; first compound 0.005 µM),relative viability ([3]; first compound 0.01581 µM),relative viability ([3]; first compound 0.05 µM),relative viability ([3]; first compound 0.1581 µM),relative viability ([3]; first compound 0.5 µM),relative viability ([4]; first compound 0.005 µM),relative viability ([4]; first compound 0.01581 µM),relative viability ([4]; first compound 0.05 µM),relative viability ([4]; first compound 0.1581 µM),relative viability ([4]; first compound 0.5 µM)
LU99A,0.626,0.558,0.555,0.495,0.497,0.329,0.286,0.33,0.322,0.291,0.46,0.443,0.3,0.284,0.21,0.287,0.297,0.271,0.218,0.226
LXF-289,0.707,0.693,0.675,0.626,0.613,0.869,0.811,0.852,0.696,0.729,0.967,0.964,0.741,0.802,0.197,0.229,0.206,0.194,0.203,0.141
NCI-H23,0.411,0.406,0.4,0.369,0.365,0.689,0.683,0.717,0.572,0.579,0.509,0.604,0.387,0.463,0.233,0.492,0.343,0.3,0.439,0.237
NCI-H322M,0.519,0.494,0.474,0.433,0.517,0.559,0.658,0.652,0.564,0.516,0.853,0.649,0.375,0.425,0.392,0.483,0.276,0.355,0.397,0.415
NCI-H358,0.124,0.134,0.148,0.133,0.132,0.807,0.801,0.914,,0.651,0.622,0.494,0.311,0.301,0.187,0.103,0.0848,0.0849,0.0845,0.0896
NCI-H441,0.607,0.429,0.552,0.446,0.418,0.795,0.661,0.548,0.602,0.596,0.446,0.547,0.182,0.339,0.27,0.711,0.719,0.537,0.651,0.442
NCI-H460,0.158,0.305,0.163,0.0691,0.139,0.743,0.81,0.747,0.515,0.605,0.24,0.433,0.17,0.262,0.0291,0.519,0.478,0.524,0.986,0.303
NCI-H520,0.629,0.789,0.665,,0.677,0.265,0.269,0.295,0.306,0.244,0.944,1.14,0.632,0.549,0.256,0.458,0.468,0.428,0.388,0.254
